The NIST ThermoML archive (doi:10.1016/j.fluid.2018.04.024)

Settings: Liquid, Vibrating tube method

CCCCCCCCC(=O)OC [methyl nonanoate]
mass density [kg/m3]
Settings	293.15 K	303.15 K	313.15 K	323.15 K	333.15 K	343.15 K	353.15 K	363.15 K
100 kPa	874.53	865.62	857.46	848.37	839.92	831.17	822.78	814.24
1000 kPa	874.57	866.39	857.68	849.17	840.72	832.28	823.57	815.28
3000 kPa	876.13	867.88	859.33	850.82	842.6	834.1	825.7	817.47
5000 kPa	877.24	869.35	860.86	852.43	844.26	835.98	827.54	819.49
10000 kPa	880.79	872.9	864.63	856.42	848.44	840.27	832.17	824.1
15000 kPa	884.05	876.32	868.21	860.21	852.27	844.44	836.71	829.08
20000 kPa	887.23	879.53	871.68	863.98	856.18	848.65	840.79	833.26
25000 kPa	890.33	882.74	875.06	867.27	859.9	852.29	844.86	837.27
30000 kPa	893.33	885.85	878.23	870.68	863.32	856.04	848.7	841.4
35000 kPa	896.14	888.79	881.36	873.86	866.68	859.58	852.44	845.31
40000 kPa	898.87	891.61	884.18	877.04	870.12	862.91	855.87	849.11
50000 kPa	904.41	897.21	890.09	883.08	876.13	869.47	862.53	855.98
60000 kPa	909.15	902.44	895.33	888.79	881.95	875.25	868.9	862.59
